According to ChEMBL document CHEMBL1909046, “DrugMatrix in vitro pharmacology data”:

How the values were obtained:
[1] = target: T1, Type-2 angiotensin II receptor (Homo sapiens, UniProt P50052); assay type: cell-based; details: cho-k1; further: in other assays of this panel Not Active means under 50% inhibition at 10 µM
T1 sequence (P50052 whole entry): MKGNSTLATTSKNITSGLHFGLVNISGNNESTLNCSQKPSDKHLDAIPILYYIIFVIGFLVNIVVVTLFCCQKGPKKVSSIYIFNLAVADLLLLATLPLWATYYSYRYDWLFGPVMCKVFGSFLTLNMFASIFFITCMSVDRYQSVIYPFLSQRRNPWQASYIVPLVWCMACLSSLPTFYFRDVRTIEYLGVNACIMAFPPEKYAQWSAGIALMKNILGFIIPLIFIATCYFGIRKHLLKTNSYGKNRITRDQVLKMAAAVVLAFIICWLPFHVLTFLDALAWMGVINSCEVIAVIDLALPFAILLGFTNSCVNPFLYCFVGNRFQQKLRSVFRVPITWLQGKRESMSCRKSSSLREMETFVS

[2] = DRUGMATRIX: ATPase, Na+/K+ enzyme inhibition (substrate: ATP); assay type: tissue-based, Sus scrofa, Heart; details: Not Active = under 50% inhibition at 10 µM
[3] = DRUGMATRIX: Sigma2 radioligand binding (ligand: [3H] Ifenprodil); assay type: cell membranes, Rattus norvegicus, Wistar, Brain, Membrane; details: Not Active = under 50% inhibition at 10 µM
Vasopressin V1a receptor = Vasopressin V1a receptor (Homo sapiens, UniProt P37288); assay type: cell membranes, Membrane; details: hek293; further: in other assays of this panel Not Active means under 50% inhibition at 10 µM
Sequence of Vasopressin V1a receptor (P37288 whole entry): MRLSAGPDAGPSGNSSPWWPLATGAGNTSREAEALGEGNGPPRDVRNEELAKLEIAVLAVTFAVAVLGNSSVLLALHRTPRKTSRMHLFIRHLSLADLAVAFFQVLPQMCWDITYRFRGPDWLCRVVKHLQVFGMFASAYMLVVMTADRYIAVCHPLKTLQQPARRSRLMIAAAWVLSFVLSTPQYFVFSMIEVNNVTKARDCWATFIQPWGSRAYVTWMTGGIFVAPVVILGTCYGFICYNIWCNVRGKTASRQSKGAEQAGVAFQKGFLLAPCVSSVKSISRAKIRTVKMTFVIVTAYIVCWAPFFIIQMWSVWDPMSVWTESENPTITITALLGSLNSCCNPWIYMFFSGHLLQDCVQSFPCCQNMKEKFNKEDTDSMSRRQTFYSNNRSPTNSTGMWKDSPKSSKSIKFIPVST

[4] = target: Kappa-type opioid receptor (Homo sapiens, UniProt P41145); assay: DRUGMATRIX: Opiate kappa (OP2, KOP) radioligand binding (ligand: [3H] Diprenorphine); assay type: cell membranes, HEK293, Membrane; details: hek293; Not Active = under 50% inhibition at 10 µM
Sequence of Kappa-type opioid receptor (P41145 whole entry): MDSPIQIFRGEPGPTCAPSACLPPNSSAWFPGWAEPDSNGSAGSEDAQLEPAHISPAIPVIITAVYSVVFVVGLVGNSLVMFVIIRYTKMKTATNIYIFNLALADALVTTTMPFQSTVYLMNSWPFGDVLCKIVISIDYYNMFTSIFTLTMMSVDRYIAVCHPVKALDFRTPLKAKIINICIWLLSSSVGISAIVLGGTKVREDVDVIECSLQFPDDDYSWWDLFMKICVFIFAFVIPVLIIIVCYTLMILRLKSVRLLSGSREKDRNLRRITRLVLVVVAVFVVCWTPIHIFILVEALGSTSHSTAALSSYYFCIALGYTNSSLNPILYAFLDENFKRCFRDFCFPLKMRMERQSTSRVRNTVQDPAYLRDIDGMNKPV

[5] = target: T2, Receptor-type tyrosine-protein phosphatase C (Homo sapiens, UniProt P08575); set-up: species or system Escherichia coli;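 further: inhibition of CD45 enzyme activity measured using DiFMUP as substrate; in other assays of this panel Not Active means under 50% inhibition at 10 µM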
T2 sequence (P08575 whole entry): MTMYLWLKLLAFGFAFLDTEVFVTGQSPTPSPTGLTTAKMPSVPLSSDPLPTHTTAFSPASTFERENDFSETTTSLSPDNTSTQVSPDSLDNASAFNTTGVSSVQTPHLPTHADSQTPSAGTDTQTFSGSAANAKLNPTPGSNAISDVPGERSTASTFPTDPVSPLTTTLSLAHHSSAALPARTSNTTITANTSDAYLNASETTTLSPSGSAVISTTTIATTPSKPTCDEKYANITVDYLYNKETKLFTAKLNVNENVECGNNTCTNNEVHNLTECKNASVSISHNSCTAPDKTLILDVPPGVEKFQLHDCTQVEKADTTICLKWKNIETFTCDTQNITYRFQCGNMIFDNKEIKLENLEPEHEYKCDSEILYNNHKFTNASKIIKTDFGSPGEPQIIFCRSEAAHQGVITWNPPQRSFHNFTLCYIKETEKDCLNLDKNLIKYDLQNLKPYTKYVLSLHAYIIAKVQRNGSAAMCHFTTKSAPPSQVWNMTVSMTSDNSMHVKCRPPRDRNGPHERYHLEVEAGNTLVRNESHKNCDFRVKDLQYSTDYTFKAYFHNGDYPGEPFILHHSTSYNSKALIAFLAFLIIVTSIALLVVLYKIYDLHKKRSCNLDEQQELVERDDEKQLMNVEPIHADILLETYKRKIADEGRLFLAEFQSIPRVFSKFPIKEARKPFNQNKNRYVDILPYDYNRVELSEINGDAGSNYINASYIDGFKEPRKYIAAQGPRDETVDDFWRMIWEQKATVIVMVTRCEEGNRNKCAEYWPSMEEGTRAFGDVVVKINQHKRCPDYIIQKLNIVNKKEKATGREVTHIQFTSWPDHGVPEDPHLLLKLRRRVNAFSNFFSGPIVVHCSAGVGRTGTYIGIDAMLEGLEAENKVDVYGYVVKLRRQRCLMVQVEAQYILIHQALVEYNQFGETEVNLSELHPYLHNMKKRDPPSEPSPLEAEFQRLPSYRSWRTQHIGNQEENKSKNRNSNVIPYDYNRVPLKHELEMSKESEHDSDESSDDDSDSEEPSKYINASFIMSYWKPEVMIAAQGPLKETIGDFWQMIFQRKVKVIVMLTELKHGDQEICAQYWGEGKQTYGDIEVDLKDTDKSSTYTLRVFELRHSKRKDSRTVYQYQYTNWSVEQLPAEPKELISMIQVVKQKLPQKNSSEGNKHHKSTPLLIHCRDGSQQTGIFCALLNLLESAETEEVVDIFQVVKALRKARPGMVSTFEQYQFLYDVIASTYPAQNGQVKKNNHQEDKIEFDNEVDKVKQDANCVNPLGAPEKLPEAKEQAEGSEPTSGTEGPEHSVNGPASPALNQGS

Adenosine receptor A3 = target: T3, Adenosine receptor A3 (Homo sapiens, UniProt P0DMS8); assay type: cell membranes, CHO-K1, Membrane; details: cho-k1;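 further: radioligand binding assay with AB-MECA serving as the labeled ligand; in other assays of this panel Not Active means under 50% inhibition at 10 µM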
T3 sequence (P0DMS8 whole entry): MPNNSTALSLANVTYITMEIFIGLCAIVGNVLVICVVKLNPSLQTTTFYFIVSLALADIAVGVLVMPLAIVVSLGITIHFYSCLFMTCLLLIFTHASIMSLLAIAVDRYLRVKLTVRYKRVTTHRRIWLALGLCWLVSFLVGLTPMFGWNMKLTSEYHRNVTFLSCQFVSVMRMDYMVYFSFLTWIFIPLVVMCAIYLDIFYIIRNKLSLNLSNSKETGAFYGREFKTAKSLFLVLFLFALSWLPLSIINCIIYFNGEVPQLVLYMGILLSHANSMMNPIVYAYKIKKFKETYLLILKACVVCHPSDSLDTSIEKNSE

c1ccc(Cn2ccnc2)cc1
Not Active: IC50 [1] | IC50 [2] | Ki [2] | IC50 [3] | Ki [3] | IC50 (Vasopressin V1a receptor) | IC50 [4] | IC50 [5] | IC50 (Adenosine receptor A3)

O=c1[nH]c2ccccc2c2ccccc12
Not Active: IC50 [1] | IC50 [2] | Ki [2] | IC50 [3] | Ki [3] | IC50 (Vasopressin V1a receptor) | IC50 [4] | IC50 [5] | IC50 (Adenosine receptor A3)

CO[C@H]1O[C@@H]2O[C@@]3(C)CC[C@H]4[C@H](C)CC[C@@H]([C@H]1C)[C@@]24OO3
Not Active: IC50 [1] | IC50 [2] | Ki [2] | IC50 [3] | Ki [3] | IC50 (Vasopressin V1a receptor) | IC50 [4] | IC50 [5] | IC50 (Adenosine receptor A3)

Nc1ccc(Cc2ccc(N)cc2)cc1
Not Active: IC50 [1] | IC50 [2] | Ki [2] | IC50 [3] | Ki [3] | IC50 (Vasopressin V1a receptor) | IC50 [5] | IC50 (Adenosine receptor A3)

C=C(Cl)Cl [1,1-DICHLOROETHENE]
Not Active: IC50 [1] | IC50 [2] | Ki [2] | IC50 [3] | Ki [3] | IC50 (Vasopressin V1a receptor) | IC50 [5] | IC50 (Adenosine receptor A3)

CCN1C[C@]2(COC)[C@H](O)C[C@H](OC)[C@@]34[C@@H]5C[C@@]6(O)[C@H](OC(=O)c7ccccc7)[C@@H]5[C@@](OC(C)=O)([C@@H]([C@H](OC)[C@H]23)[C@@H]14)[C@@H](O)[C@@H]6OC [ACONITINE]
Not Active: IC50 [1] | IC50 [2] | Ki [2] | IC50 [3] | Ki [3] | IC50 (Vasopressin V1a receptor) | IC50 [5] | IC50 (Adenosine receptor A3)

C=CCO [ALLYL ALCOHOL]
Not Active: IC50 [1] | IC50 [2] | Ki [2] | IC50 [3] | Ki [3] | IC50 (Vasopressin V1a receptor) | IC50 [5] | IC50 (Adenosine receptor A3)

ClC1=C(Cl)[C@]2(Cl)[C@@H]3[C@@H]4C[C@@H]([C@H]5O[C@@H]45)[C@@H]3[C@@]1(Cl)C2(Cl)Cl [DIELDRIN]
Not Active: IC50 [1] | IC50 [2] | Ki [2] | IC50 [3] | Ki [3] | IC50 (Vasopressin V1a receptor) | IC50 [5] | IC50 (Adenosine receptor A3)

O=C(O)CNCP(=O)(O)O [GLYPHOSATE]
Not Active: IC50 [1] | IC50 [2] | Ki [2] | IC50 [3] | Ki [3] | IC50 (Vasopressin V1a receptor) | IC50 [5] | IC50 (Adenosine receptor A3)

C=CCN1CC[C@]23c4c5ccc(O)c4O[C@H]2/C(=N/N=C2\CC[C@@]4(O)[C@H]6Cc7ccc(O)c8c7[C@@]4(CCN6CC=C)[C@H]2O8)CC[C@@]3(O)[C@H]1C5 [NALOXONAZINE]
Not Active: IC50 [1] | IC50 [2] | Ki [2] | IC50 [3] | Ki [3] | IC50 (Vasopressin V1a receptor) | IC50 [5] | IC50 (Adenosine receptor A3)

COc1cc([C@@H]2c3cc4c(cc3[C@H](O)[C@H]3COC(=O)[C@H]23)OCO4)cc(OC)c1OC [PODOFILOX]
Not Active: IC50 [1] | IC50 [2] | Ki [2] | IC50 [3] | Ki [3] | IC50 (Vasopressin V1a receptor) | IC50 [5] | IC50 (Adenosine receptor A3)

CARBOXYMETHYLCELLULOSE
Not Active: IC50 [1] | Ki [1] | IC50 [2] | Ki [2] | IC50 [3] | Ki [3] | IC50 (Vasopressin V1a receptor) | Ki (Vasopressin V1a receptor) | IC50 [5] | Ki [5] | IC50 (Adenosine receptor A3) | Ki (Adenosine receptor A3)

CHROMIC CHLORIDE
Not Active: IC50 [1] | Ki [1] | IC50 [2] | Ki [2] | IC50 [3] | Ki [3] | IC50 (Vasopressin V1a receptor) | Ki (Vasopressin V1a receptor) | IC50 [5] | Ki [5] | IC50 (Adenosine receptor A3) | Ki (Adenosine receptor A3)

COPPER(II) OXIDE
Not Active: IC50 [1] | Ki [1] | IC50 [2] | Ki [2] | IC50 [3] | Ki [3] | IC50 (Vasopressin V1a receptor) | Ki (Vasopressin V1a receptor) | IC50 [5] | Ki [5] | IC50 (Adenosine receptor A3) | Ki (Adenosine receptor A3)

POVIDONE
Not Active: IC50 [1] | Ki [1] | IC50 [2] | Ki [2] | IC50 [3] | Ki [3] | IC50 (Vasopressin V1a receptor) | Ki (Vasopressin V1a receptor) | IC50 [5] | Ki [5] | IC50 (Adenosine receptor A3) | Ki (Adenosine receptor A3)
